The record followed here is patent US7208491B2, “N-monoacylated o-phenylenediamines” (Hoffmann-La Roche Inc., priority 2003, dated 2007).

Data set [1] concerns histone deacetylase (HDAC). The data set can be described thus: cellular acetylation assay (acetylation of histones in PC3 cells, ELISA). Type of data set: cell-based. The following applies: PC3 human prostate carcinoma cells; compound 1 μM; 24 h incubation; ELISA with antibodies against acetylated histone H3 or H4. The protocol:
Therein acetylation of histones is monitored in PC3 cells. High acetylation correlates with inhibition of histone deacetylase by compounds. Cell viability is monitored in parallel to estimate the cytotoxicity of compounds.
PC3 cells, a human prostate carcinoma cell line, are seeded as 1800 cells per well of a 384-well microtiterplate in RPMI 1640 (including 5% FCS, 2 mM glutamine and pen/strep).
After 48 h at 37° C. pre-diluted compounds are added to a final concentration of 1 uM. Compounds are pre-diluted in dimethyl sulfoxide (DMSO) resulting in a final concentration of DMSO of 0.5% per well.
After 24 h incubation cell viability is determined by adding cell proliferation reagent WST-1 (Roche Molecular Biochemicals). Another 60 min later the optical density (OD) is measured (450 nm versus 690 nm).
After measurement the cell layer is prepared for the ELISA reaction. Medium is aspirated and cells are fixed in ethanol at −20° C. for 60 min. After washing with PBS/Tween the blocking solution (PBS/5% FCS/Tween) is added and the cell layer is washed again. Antibodies against acetylated histone H3 or H4 (rabbit polyklonal IgG, Upstate Biotechnologie) are added at a dilution of 1:200 for 60 min at 37° C. As a second antibody goat anti rabbit IgG (H+L) humanIgG adsorbed-HRP conjugate (Dako) is used (1:2000 diluted). Cells are washed 3 times and the peroxidase substrate ABTS is allowed to react for 30–60 min at 37° C. The OD is measured at 405 nm.
The percentage of acetylation is calculated after substraction of blank O.D.s: […]
(An ELISA detects its analyte on a solid surface through an enzyme-linked reagent.)

As a reminder, the melting point is the temperature of the solid-liquid transition.

SMILES strings stand for the structures.

With `CC(=O)Nc1ccc(C(=O)Nc2ccccc2N)cc1` [4-acetylamino-N-(2-amino-phenyl)-benzamide, reference compound], the “cell acetylation (PC3, 1 μM) [% of control]” value in data set [1] is recorded as 152 % of control.
The same measure, in the same setting: the value for `CN(C)CCCOc1ccc2sc(C(=O)Nc3ccccc3N)cc2c1` [Example 2, 5-(3-Dimethylamino-propoxy)-benzo[b]thiophene-2-carboxylic acid (2-amino-phenyl)-amide] was 209 % of control.
As to `CC(C)N(CCOc1ccc2sc(C(=O)Nc3ccccc3N)cc2c1)C(C)C` [Example 3, 5-(2-Diisopropylamino-ethoxy)-benzo[b]thiophene-2-carboxylic acid (2-amino-phenyl)-amide], in data set [1], the “cell acetylation (PC3, 1 μM) [% of control]” value is given as 172 % of control.
Consider `Nc1ccccc1NC(=O)c1cc2cc(OCCO)ccc2s1` [Example 16, 5-(2-Hydroxy-ethoxy)-benzo[b]thiophene-2-carboxylic acid (2-amino-phenyl)-amide], for which the melting point fell in the range of 215 to 216 °C. Also, the “cell acetylation (PC3, 1 μM) [% of control]” value in data set [1] was 156 % of control.
With `Nc1ccccc1NC(=O)c1cc2cc(CCO)ccc2o1` [Example 24, 5-(2-Hydroxy-ethyl)-benzofuran-2-carboxylic acid (2-amino-phenyl)-amide], the “cell acetylation (PC3, 1 μM) [% of control]” value in data set [1] is on record as 157 % of control.
